Read-outs that look alike come from different tables or passages of the source.
Key:
[1] = target: sodium iodide symporter (NIS) (Rattus norvegicus, UniProt Q63008); details: read-out: Km of NIS transport; Xenopus oocytes (Eskandari 1997); cited from earlier work
NdCld [2] = details: human digitonin-permeabilized HeLa cell extract expressing NdCld, initial rates of oxygen evolution
Procedure: HeLa cells were pelleted at 800×g for 3 min, washed with PBS, pelleted again, and then resuspended in assay buffer (125 mM KCl, 2 mM K2HPO4, 1 mM MgCl2, 2 0 mM HEPES pH 7.2, 5 mM glutamate, 5 mM malate, and 0.01% digitonin) at a concentration of 5×10^6 cells/ml. Oxygen production was measured using a FireSting optical oxygen meter connected to a sensor vial. One ml of cell solution (5×10^6 cells) was used for each measurement. Measurements were performed under ambient air conditions with stirring of the cell solution. […] The initial rates were determined from the resulting oxygen traces using up to 20 seconds of the linear portion of the trace via the ICEKAT web server (Olp, 2020). The means of 3 replicate rates were plotted against the chlorite concentrations to estimate the KM.
We next characterized the activity of this protein in human cell extracts. […] Doses spanning 10 uM to 1 mM were used, as previous studies have shown that higher chlorite concentrations lead to inactivation of the enzyme (Hofbauer 2014). We monitored oxygen evolution using an optical probe in a well-stirred, air saturated cuvette.

HeLa cells [3] = experiment: Seahorse oxygen and oxygen consumption rate measurement in intact cells; assay type: cell-based, human; details: 1% ambient oxygen
HeLa cells [4] = details: read-out: concentration giving 50% decrease in viability; HeLa cells (GFP), treated for 3 days, FIG. 3A
Procedure: Cell counts and viability were assessed after 3 days of growth using a Vi-Cell BLU Cell Viability Analyzer. Shown is the mean+/−s.d. of triplicate measurements.
HeLa cells were trypsinized, counted, and prepared at 10^5 cells/ml in normal growth media. […] Cells were seeded in 24-well plates, with triplicate wells for each condition. 500 ul of each 2× chlorite/media preparation was first added to the plate. 500 ul of cell suspension (5×10^4 cells) was then added to each well. The plate was gently mixed, and cells were grown for 3 days in a 37° C./5% CO2 incubator. After 3 days, cells were washed briefly with 500 ul of PBS, trypsinized with 250 ul TrypLE Express, and resuspended with 750 ul of normal growth media to 1 ml total volume. In wells containing a majority of visibly dead, floating cells, cells were resuspended by vigorously pipetting up and down rather than by trypsinization. 200 ul of each cell suspension was then quantified using a Vi-Cell BLU Cell Viability Analyzer (Beckman Coulter).

NdCld [5] = details: purified bacterial expressed NdCld (Kostan 2010; Hofbauer 2014); cited from earlier work
NdCld [6] = details: NdCld in E. coli extracts (Maixner 2008); cited from earlier work
yeast = details: read-out: dose required to achieve 50% growth inhibition; yeast (Kwolek-Mirek 2011); cited from earlier work

NdCld, sequence (as listed by the source): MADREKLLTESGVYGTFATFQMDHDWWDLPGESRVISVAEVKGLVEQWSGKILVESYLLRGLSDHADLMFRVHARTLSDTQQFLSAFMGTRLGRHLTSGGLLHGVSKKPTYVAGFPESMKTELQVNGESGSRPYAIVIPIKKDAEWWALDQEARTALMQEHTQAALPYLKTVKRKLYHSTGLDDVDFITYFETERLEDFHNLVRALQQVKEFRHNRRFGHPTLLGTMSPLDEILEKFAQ
sodium iodide symporter (NIS), sequence (Q63008 whole entry): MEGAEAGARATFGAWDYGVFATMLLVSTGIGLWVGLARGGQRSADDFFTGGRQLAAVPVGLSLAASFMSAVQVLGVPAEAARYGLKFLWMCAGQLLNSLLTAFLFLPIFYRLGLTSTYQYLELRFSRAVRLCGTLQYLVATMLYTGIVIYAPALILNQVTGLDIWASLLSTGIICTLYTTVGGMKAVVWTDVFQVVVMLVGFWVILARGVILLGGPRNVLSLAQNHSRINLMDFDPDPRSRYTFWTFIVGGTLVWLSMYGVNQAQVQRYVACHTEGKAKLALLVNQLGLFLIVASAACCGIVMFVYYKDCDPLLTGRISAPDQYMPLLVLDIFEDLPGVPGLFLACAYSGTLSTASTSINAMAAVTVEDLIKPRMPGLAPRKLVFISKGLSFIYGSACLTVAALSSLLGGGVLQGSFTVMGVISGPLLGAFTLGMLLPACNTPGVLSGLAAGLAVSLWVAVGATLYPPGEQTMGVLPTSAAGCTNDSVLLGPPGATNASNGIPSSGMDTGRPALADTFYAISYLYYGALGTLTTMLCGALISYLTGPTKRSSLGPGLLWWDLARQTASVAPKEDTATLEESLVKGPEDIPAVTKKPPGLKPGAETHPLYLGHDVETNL

Compound	Km [1] [µM]	Vmax (NdCld [2])	Km (NdCld [2]; read-out: Km for chlorite) [µM]	oxygen generation (decline in apparent OCR) (HeLa cells [3]; HeLa cells co-expressing NdCld and NIS, piericidin+antimycin, dose response beginning with 1 mM chlorite)	oxygen evolution in intact cells (HeLa cells [3]; HeLa cells expressing FLAG-NdCld+NIS (not mCherry), 500 uM or 1 mM chlorite)	IC50 (HeLa cells [4]) [µM]	Km (NdCld [5]) [µM]	Km (NdCld [6]) [µM]	IC50 (yeast) [µM]
[O-][Cl+2]([O-])O [chlorate]	277	–	–	–	–	–	–	–	–
sodium chlorite	–	0.37 umoles/second/100,000 cells	560	robust oxygen production	observed oxygen evolution	~2000	58 to 69	15800	4000

Reference: patent publication US20250297233A1, “GENETICALLY ENCODED SYSTEMS FOR GENERATING OXYGEN IN LIVING EUKARYOTIC CELLS” (The General Hospital Corporation, priority 2022, published 2025)
